Measurements: US7045138B2, “Composition for mitigation of insects and/or mollusca” (American Natural Technology Sciences, Inc., priority 2000, dated 2006)

Test system: Fire Ants
Experiment: Fire ant mound field tests of bait/borate formulations
Format: in vivo, Solenopsis invicta
Procedure: The following components were tested either alone or in combinations for their ability to attract Fire Ants: • 1. Cow manure dropping in an infested area; • 2. Pelletized cow manure; • 3. Milk; • 4. Powdered, fresh and pelletized whey; • 5. Sugar solutions of varying concentrations; • 6. Raw fruit and vegetables of various kinds and concentrates; • 7. Various soft drinks containing sugar; • 8. Bacon and other raw meats; • 9. Vegetable and animal oils, both in liquid or solid; • 10. Dog and cat foods in bags, cans, or packaged in some other manner; • 11. Corn or other vegetable products in the form of meal, syrup, cracked, particles and flakes and other particles; • 12. Wheat and rice as bleached and unbleached, flower or granules; • 13. Millet seeds whole and crushed; • 14. Sunflower seeds whole, crushed and with various vegetable oils added; • 15. Microcapsules of whey and other materials, made to hold various, foods, etc.; and • 16. Capsules made of various vegetable water, sugar, starches, proteins, etc. that contain the bait and/or borates and/or DE.
Mounds were selected of varying sizes measured in diameter: • 1. Small mound (1 inch to 6 inches) • 2. Medium mound (6 inches to 3.0 feet) • 3. Large mound (3.0 feet and larger) • 4. Control
When possible, isolated mounds were selected.
The formulations were tested individually at different sites: • 1. Standard was one level teaspoon for a small mound, two for a medium mound and three or more for a large mound; and • 2. Volume vs. weight was noted.
The following data was collected for each site: • 1. Location • 2. Data and time of application • 3. Observation are conducted at: • a. One hour; • b. Four hours; • c. Twelve hours; • d. One day; • e. Two days; • f. Four days; • g. Eight days; • h. Sixteen days; and • i. Intermittent observations based upon climatic conditions. • 4. Weather data collected include: • a. Temperature; • b. Humidity; • c. Rainfall (time of day and extent); and • d. Wind speed and direction • 5. General observations
The time of application is preferably near evening (5 p.m. or later) or early morning (5 a.m. to 9 a.m.).

Substance | performance (5% substituted for the DOT, with whey) | degree of control (DOT combined with whey bait) | acceptance by the Fire Ants (incorporated with the baits tested) | acceptable formulation level for control into the second generation (preliminary data) [%] | acceptable formulation level for first generation control (preliminary data)
calcium borate | superior performance | – | – | – | –
Disodium octoborate tetrahydrate [DOT] | – | high degree of control | readily accepted | ~1.0 | ~0.05 % of the formulation
